This assay deals with CDK2 (UniProt P24941). Nature of the assay: Enzyme Assay.

As usually defined, the IC50 is the concentration needed to halve the response being measured.

`COc1ccc(-c2cc(Nc3ccc(C)c(NS(C)(=O)=O)c3)ncn2)cc1`: the IC50 is 0.001 to 1 µM.

`COc1ccccc1-c1cc(Nc2ccc(NC(=O)C34CC5CC(CC(C5)C3)C4)cc2)ncn1` displayed an IC50 of 10 to 250 µM.

The compound `Nc1ccc(C(=O)Nc2ccc(Nc3cc(-c4cccc(N)c4)ncn3)cc2)cc1` returned an IC50 of 1 to 10 µM.

Regarding `COc1ccccc1-c1cc(Nc2ccc(NC(=O)c3nc4ccccc4s3)cc2)ncn1`, the IC50 is 10 to 250 µM.

Consider `COc1ccccc1-c1cc(Nc2ccc(NS(=O)(=O)c3ccc(C)cc3)cc2)ncn1`, for which the IC50 lay within 0.001 to 1 µM.

As to `COc1cccc(-c2cc(Nc3ccc(NS(=O)(=O)c4ccc(C)cc4)cc3)ncn2)c1`, the IC50 is 10 to 250 µM.

For the compound `Nc1ccc(C(=O)Nc2ccc(Nc3cc(Cl)ncn3)cc2)cc1`, the IC50 lay within 10 to 250 µM.

Compound `COc1ccccc1-c1cc(Nc2ccc(NC(=O)c3ccc(N)cc3)cc2)nc(N)n1` had an IC50 of 10 to 250 µM.

In turn, `COc1ccc(-c2cc(Nc3ccc(NS(=O)(=O)c4ccc(C)cc4)cc3)ncn2)cc1` showed an IC50 of 1 to 10 µM.

The compound `COc1ccccc1-c1cc(Nc2ccc(NC(=O)CN(C)C)cc2)ncn1` gave an IC50 of 1 to 10 µM.

Turning to `CCCN(c1ccc(Nc2cc(-c3ccccc3OC)ncn2)cc1)S(=O)(=O)c1ccc(C)cc1`, the IC50 lay in the range of 10 to 250 µM.

Compound `COc1ccccc1-c1cc(Nc2ccc(NC(=O)c3ccncc3)cc2)ncn1` gave an IC50 of 10 to 250 µM.

`CN1CCC(Nc2cc(Nc3ccc(NC(=O)C(C)(C)C)cc3)ncn2)CC1` returned an IC50 of 10 to 250 µM.

Consider `COc1ccccc1-c1cc(Nc2ccc(NS(=O)(=O)C(C)C)cc2)ncn1`, for which the IC50 fell in the range of 0.001 to 1 µM.

`Cc1ccc(Nc2cc(-c3cccc(N(C)C)c3)ncn2)cc1NS(C)(=O)=O` yielded an IC50 of 1 to 10 µM.

Compound `Nc1ccc(C(=O)Nc2ccc(Nc3cc(NCCO)ncn3)cc2)cc1` came in with an IC50 of 10 to 250 µM.

The compound `Cc1ccc(Nc2cc(-c3ccccc3OCc3ccccc3)ncn2)cc1NS(C)(=O)=O` registered an IC50 of 0.001 to 1 µM.

Compound `COc1ccc(Cl)cc1-c1cc(Nc2ccc(NC(=O)c3ccc(N)cc3)cc2)ncn1` displayed an IC50 of 10 to 250 µM.

`COc1ccccc1-c1cc(Nc2ccc(C(=O)NC3CCCCC3)cc2)ncn1` registered an IC50 of 1 to 10 µM.

Compound `Nc1ccc(C(=O)Nc2ccc(Nc3cc(NCC4CCCCC4)ncn3)cc2)cc1` came in with an IC50 of 10 to 250 µM.

In the case of `Cc1ccc(Nc2cc(-c3ccccc3O)ncn2)cc1NS(C)(=O)=O`, the IC50 was in the range of 0.001 to 1 µM.

`Cc1ccc(S(=O)(=O)Nc2ccc(Nc3cc(-c4ccc(CCC(=O)O)cc4)ncn3)cc2)cc1` came in with an IC50 of 10 to 250 µM.

On to `COc1ccccc1-c1cc(Nc2ccc(NC(=O)NCc3ccc(C)cc3)cc2)ncn1`, for which the IC50 lay within 10 to 250 µM.

For the compound `COc1ccc(-c2cc(Nc3ccc(NC(=O)[C@@H]4CCCCN4)cc3)ncn2)c(OC)c1`, the IC50 lay within 1 to 10 µM.

Compound `COc1ccccc1-c1cc(Nc2ccc(NC(=O)C(C)(C)C)cc2)ncn1` gave an IC50 of 1 to 10 µM.

The compound `CC(C)(C)C(=O)Nc1ccc(Nc2cc(-c3ccccc3OCc3ccccc3)ncn2)cc1` had an IC50 of 1 to 10 µM.

Regarding `CC(C)(C)C(=O)Nc1ccc(Nc2cc(-c3ccccc3C(F)(F)F)ncn2)cc1`, the IC50 lay within 10 to 250 µM.

Turning to `Cc1ccc(Nc2cc(-c3cccc(C#N)c3)ncn2)cc1NS(C)(=O)=O`, the IC50 lay within 1 to 10 µM.

Compound `COc1ccccc1-c1cc(Nc2ccc(NC(=O)C(c3ccccc3)C(C)C)cc2)ncn1` (centres undefined) yielded an IC50 of 10 to 250 µM.

Compound `Nc1ccc(C(=O)Nc2ccc(Nc3cc(/C=C/c4ccccc4)ncn3)cc2)cc1` gave an IC50 of 10 to 250 µM.

As for `COc1ccccc1-c1cc(Nc2ccc(NC(=O)NC(C)(C)C)cc2)ncn1`, the IC50 lay in the range of 1 to 10 µM.

Compound `CCCS(=O)(=O)Nc1ccc(Nc2cc(-c3ccccc3OC)ncn2)cc1` displayed an IC50 of 0.001 to 1 µM.

`Cc1ccc(Nc2cc(-c3cccc(C=O)c3)ncn2)cc1NS(C)(=O)=O` returned an IC50 of 1 to 10 µM.

Take `Cc1ccc(Nc2cc(-c3cccc(N)c3)ncn2)cc1NS(=O)(=O)c1cn(C)cn1`: the IC50 was in the range of 0.001 to 1 µM.

`Nc1ccc(C(=O)Nc2ccc(Nc3cc(-c4ccc(O)cc4)ncn3)cc2)cc1` displayed an IC50 of 1 to 10 µM.

`COc1ccc(C(C)C)cc1-c1cc(Nc2ccc(NC(=O)c3ccc(N)cc3)cc2)ncn1` yielded an IC50 of 10 to 250 µM.

In turn, `CN1CCN(c2cc(Nc3ccc(NC(=O)C(C)(C)C)cc3)ncn2)CC1` had an IC50 of 10 to 250 µM.

`COc1ccccc1-c1cc(N(C)c2ccc(N)cc2)ncn1` yielded an IC50 of 1 to 10 µM.

`N[C@@H]1CCCC[C@H]1NC(=O)c1ccc(Nc2cc(-c3ccccc3OCc3ccccc3)ncn2)cc1.N[C@H]1CCCC[C@@H]1NC(=O)c1ccc(Nc2cc(-c3ccccc3OCc3ccccc3)ncn2)cc1`: the IC50 is 0.001 to 1 µM.

As for `COc1ccc(-c2cc(Nc3cccc(S(N)(=O)=O)c3)ncn2)cc1`, the IC50 fell in the range of 0.001 to 1 µM.

The compound `COc1ccccc1-c1cc(Nc2ccc(N)cc2C)ncn1` displayed an IC50 of 1 to 10 µM.

Take `COC(=O)c1ccc(Nc2cc(-c3ccccc3OC)ncn2)cc1`: the IC50 lay in the range of 0.001 to 1 µM.

In turn, `Cc1ccc(Nc2cc(-c3cccc(C(F)(F)F)c3)ncn2)cc1NS(C)(=O)=O` yielded an IC50 of 10 to 250 µM.

As to `Oc1ccccc1-c1cc(NCCc2ccncc2)ncn1`, the IC50 was in the range of 10 to 250 µM.

In turn, `CS(=O)(=O)Nc1cccc(-c2cc(Nc3ccc(C(=O)N[C@@H]4CCCC[C@H]4N)cc3)ncn2)c1.CS(=O)(=O)Nc1cccc(-c2cc(Nc3ccc(C(=O)N[C@H]4CCCC[C@@H]4N)cc3)ncn2)c1` displayed an IC50 of 1 to 10 µM.

In turn, `COc1ccc(OC)c(-c2cc(Nc3ccc(NC(=O)c4ccc(N)cc4)cc3)ncn2)c1` yielded an IC50 of 10 to 250 µM.

The compound `Cc1ccc(S(=O)(=O)Nc2ccc(Nc3cc(-c4ccc(O)cc4)ncn3)cc2)cc1` yielded an IC50 of 0.001 to 1 µM.

In turn, `COc1ccccc1-c1cc(Nc2ccc(NC(=O)C3CC4CCC3C4)cc2)ncn1` (centres undefined) gave an IC50 of 10 to 250 µM.

In turn, `COc1ccccc1-c1cc(Nc2cccc(S(N)(=O)=O)c2)ncn1` returned an IC50 of 0.001 to 1 µM.

In turn, `COc1ccccc1-c1cc(Nc2ccc(C(=O)Nc3ccc(N4CCOCC4)cc3)cc2)ncn1` gave an IC50 of 1 to 10 µM.

For the compound `COc1ccccc1-c1cc(Nc2ccc(NC(=O)c3ccc4ccccc4n3)cc2)ncn1`, the IC50 was 10 to 250 µM.

Consider `COc1ccccc1-c1cc(Nc2ccc(NS(=O)(=O)c3ccccc3)cc2)ncn1`, for which the IC50 is 0.001 to 1 µM.

Take `CS(=O)(=O)Nc1cc(Nc2cc(-c3cccc(N)c3)ncn2)ccc1OCc1ccccc1`: the IC50 was in the range of 1 to 10 µM.

`Cc1ccc(Nc2cc(-c3ccccc3OC(C)C)ncn2)cc1NS(C)(=O)=O` gave an IC50 of 0.001 to 1 µM.

Take `COc1ccccc1-c1cc(Nc2ccc(NC(=O)[C@@H]3CCCCN3C(=O)OC(C)(C)C)cc2)ncn1`: the IC50 lay in the range of 1 to 10 µM.

Take `COc1cccc(-c2cc(Nc3ccc(C)c(NS(C)(=O)=O)c3)ncn2)c1`: the IC50 lay within 1 to 10 µM.

The compound `COc1ccccc1-c1cc(Nc2ccc(NC(=O)CC3CCCCN3C(=O)OC(C)(C)C)cc2)ncn1` (centres undefined) yielded an IC50 of 1 to 10 µM.

`Cc1ccc(Nc2cc(-c3cccc(N)c3)ncn2)cc1NS(=O)(=O)c1cccc2cccnc12`: the IC50 is 10 to 250 µM.

`CC(C)(C)C(=O)Nc1ccc(Nc2cc(NCCN)ncn2)cc1` displayed an IC50 of 10 to 250 µM.

The compound `COc1ccccc1-c1cc(Nc2ccc(-c3nc4ccccc4o3)cc2)ncn1` gave an IC50 of 10 to 250 µM.

In the case of `COc1ccccc1-c1cc(Nc2ccc(NC(=O)C(C)(C)C)cc2C)ncn1`, the IC50 lay within 10 to 250 µM.

With `COc1ncccc1-c1cc(Nc2ccc(C)c(NS(C)(=O)=O)c2)ncn1`, the IC50 is 1 to 10 µM.

As to `Cc1ccc(Nc2cc(-c3cccc(NS(C)(=O)=O)c3)ncn2)cc1CS(N)(=O)=O`, the IC50 lay within 0.001 to 1 µM.

`CCCCNS(=O)(=O)c1cccc(Nc2cc(-c3ccccc3OC)ncn2)c1`: the IC50 lay within 1 to 10 µM.

These data come from the Kinase Knowledgebase extract (Sharma et al. 2016).
